# Source: ChEMBL document CHEMBL1201862, “PubChem BioAssay data set” (2004)
# Activity calls are given as the source filed them. Unless noted, no cut-off for these calls is given here.
# Key:
# Bcl-2-like protein 10 = target: T1, Bcl-2-like protein 10 (Homo sapiens, UniProt Q9HD36); assay: Concentration-response of Bcl-B inhibitors by biochemical FP with TR3 (AID 1243); format: functional
# T1 sequence (Q9HD36 whole entry): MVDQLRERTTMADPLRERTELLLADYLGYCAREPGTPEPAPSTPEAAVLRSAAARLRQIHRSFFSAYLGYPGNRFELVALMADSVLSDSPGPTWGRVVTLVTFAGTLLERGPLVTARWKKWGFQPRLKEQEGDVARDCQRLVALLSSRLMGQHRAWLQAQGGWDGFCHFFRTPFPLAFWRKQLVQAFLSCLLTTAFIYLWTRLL
# Ephrin type-A receptor 4 = Ephrin type-A receptor 4 (Mus musculus, UniProt Q03137); assay: EphA4 ligand-binding antagonists – biochemical, colorimetric, mouse EphA4, primary screen (AID 689); format: functional
# [1] = target: Muscarinic acetylcholine receptor M1 (Rattus norvegicus, UniProt P08482); assay: concentration-dependent potentiation of ACh at M1 – cell-based, calcium mobilization, CHO-K1, ACh EC20, dose response (AID 2425); format: functional
# [2] = decrease of insulin promoter-GFP reporter – imaging, high-content screening, mouse beta cells (AID 1628); format: functional; settings: MIN6
# [3] = tested on: Streptococcus sp. 'group A'; assay: Streptococcus pyogenes SK(-)GAS viability under kanamycin – luminescence, BacTiterGlo, confirmation, counter-screen for streptokinase expression inhibitor project, dose response (AID 1900); format: functional, organism-based
# [4] = MIN6 cell viability loss – mouse insulinoma, cytotoxicity control, dose response (AID 2122); format: functional;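 note: confirmatory high-throughput counterscreen run to flag cytotoxic compounds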
# [5] = Trypanosoma cruzi growth suppression in host cells – NIH3T3 host cells, beta-gal luminescence, confirmation (AID 2044); format: functional, cell-based;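 note: intracellular parasites grown in NIH/3T3 mouse fibroblasts as host cells; luminescent beta-galactosidase reporter signal from transgenic T. cruzi replicating inside host cells; inhibitors lower the luminescence signal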
# Galanin receptor type 2 = target: T2, Galanin receptor type 2 (Homo sapiens, UniProt O43603); assay: Dose Response cell-based high-throughput screening assay to identify agonists of galanin receptor 2 (GALR2). [Related pubchem assays: 864 ]; format: functional
# T2 sequence (O43603 whole entry): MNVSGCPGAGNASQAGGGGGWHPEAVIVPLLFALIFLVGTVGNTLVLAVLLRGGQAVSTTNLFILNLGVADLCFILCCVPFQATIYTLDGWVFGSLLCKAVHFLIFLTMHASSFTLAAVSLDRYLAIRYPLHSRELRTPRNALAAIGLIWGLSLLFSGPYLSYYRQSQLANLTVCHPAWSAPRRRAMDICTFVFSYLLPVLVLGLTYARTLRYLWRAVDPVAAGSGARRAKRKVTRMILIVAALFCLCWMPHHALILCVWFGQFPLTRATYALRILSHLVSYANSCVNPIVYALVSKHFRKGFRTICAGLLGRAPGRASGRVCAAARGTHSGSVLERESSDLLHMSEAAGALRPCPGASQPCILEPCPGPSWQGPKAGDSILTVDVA
# [6] = NIH3T3 cell viability loss – ATP luminescence, mouse fibroblasts, counter-screen, dose response (AID 2010); format: functional, cell-based;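 note: cells exposed to compound for about 90 hours before reading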
# Streptococcus [7] = assay: GAS UMAA2166 growth inhibition – luminescence, BacTiterGlo, counter-screen for streptokinase expression inhibitor project, dose response (AID 1915); format: functional, organism-based;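 note: potency for reduction of bacterial viability or growth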
# INS1 = assay: INS-1E survival protection against cytokine death – cell-based, luminescence, retest, dose response (AID 449756); format: functional; settings: Rattus norvegicus;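 note: cell death triggered by IL-1 beta plus TNF-alpha plus IFN-gamma mixture; protective hits raise ATP signal compared with cytokine alone wells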
# [8] = reduction of Shn3 3'UTR-driven luciferase in osteoblasts – cell-based, Clone20 osteoblasts, firefly luciferase, cherry-picked, dose response (AID 624132); format: functional;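 note: firefly luciferase luminescence from reporter carrying the Shn3 3'UTR in osteoblasts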
# [9] = loss of viability in HepG2 cells – cell-based, CellTiter-Glo, cherry-picked, cytotoxicity control for Shn3 inhibitor project, dose response (AID 624134); format: functional
# [10] = non-specific 3'UTR reporter inhibition in Clone20-Shn3RL – cell-based, Renilla luciferase, cherry-picked, counter-screen for Shn3 inhibitor project, dose response (AID 624133); format: functional
# [11] = target: Inward rectifier potassium channel 2 (Mus musculus, UniProt P35561); assay: Manual electrophysiological patch clamp assay for SAR compounds that inhibit/block inward-rectifying potassium ion channel Kir2.1. [Related pubchem assays: 1843 (Summary assay for Kir2.1 inhibitor assays.), 1672 (Primary HTS of 305616 compounds where 2592 were identified as active.)]; format: functional
# [12] = mitochondrial function rescue without frataxin homolog – Friedreich's ataxia, plus single-dose screen, dose response (AID 1465); format: functional;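 note: yeast depleted of Yfh1p frataxin homolog grown on glycerol needing respiration; WST-1 tetrazolium dye reduction as measure of cellular dehydrogenase metabolic activity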
# Streptokinase A = target: T3, Streptokinase A (Streptococcus pyogenes serotype M1, UniProt P10520); assay: Absorbance Microorganism-Based Dose Response Follow up to Identify Inhibitors of Streptokinase Expression. [Related pubchem assays: 1677 (Project Summary), 1915, 1914, 1902 (Retest at Dose), 1900 (Counter Screen), 1662 (Primary HTS)]; format: functional, Streptococcus pyogenes M1 GAS
# T3 sequence (P10520 whole entry): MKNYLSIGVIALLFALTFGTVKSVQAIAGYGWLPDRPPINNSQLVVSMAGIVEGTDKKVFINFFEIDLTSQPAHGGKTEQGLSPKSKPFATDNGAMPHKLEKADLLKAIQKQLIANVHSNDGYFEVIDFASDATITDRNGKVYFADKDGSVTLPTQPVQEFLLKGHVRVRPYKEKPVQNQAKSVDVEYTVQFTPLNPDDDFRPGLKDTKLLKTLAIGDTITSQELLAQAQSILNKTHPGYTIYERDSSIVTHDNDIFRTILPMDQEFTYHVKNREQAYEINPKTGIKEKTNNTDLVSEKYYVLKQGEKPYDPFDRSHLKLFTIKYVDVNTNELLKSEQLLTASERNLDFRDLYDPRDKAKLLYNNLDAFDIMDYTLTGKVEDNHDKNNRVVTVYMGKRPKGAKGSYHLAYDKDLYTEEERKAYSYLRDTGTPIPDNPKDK
# Streptococcus [13] = assay: GAS bacterial viability reduction – luminescence, BacTiter-Glo, strain UMAA2166, counter-screen for streptokinase expression inhibitor project, dose response (AID 2477); format: functional, organism-based
# Sequence of Inward rectifier potassium channel 2 (P35561 whole entry): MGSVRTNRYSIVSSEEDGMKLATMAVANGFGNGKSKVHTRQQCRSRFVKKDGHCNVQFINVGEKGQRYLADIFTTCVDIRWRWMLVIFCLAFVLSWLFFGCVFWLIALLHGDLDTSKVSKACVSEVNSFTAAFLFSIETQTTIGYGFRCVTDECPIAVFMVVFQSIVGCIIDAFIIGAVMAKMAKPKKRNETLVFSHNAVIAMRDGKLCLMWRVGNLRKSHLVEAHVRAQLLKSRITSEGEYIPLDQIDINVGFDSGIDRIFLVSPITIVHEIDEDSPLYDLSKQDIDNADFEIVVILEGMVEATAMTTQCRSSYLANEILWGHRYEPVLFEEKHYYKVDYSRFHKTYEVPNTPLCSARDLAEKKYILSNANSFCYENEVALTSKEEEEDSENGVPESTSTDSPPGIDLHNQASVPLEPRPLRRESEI
# Sequence of Muscarinic acetylcholine receptor M1 (P08482 whole entry): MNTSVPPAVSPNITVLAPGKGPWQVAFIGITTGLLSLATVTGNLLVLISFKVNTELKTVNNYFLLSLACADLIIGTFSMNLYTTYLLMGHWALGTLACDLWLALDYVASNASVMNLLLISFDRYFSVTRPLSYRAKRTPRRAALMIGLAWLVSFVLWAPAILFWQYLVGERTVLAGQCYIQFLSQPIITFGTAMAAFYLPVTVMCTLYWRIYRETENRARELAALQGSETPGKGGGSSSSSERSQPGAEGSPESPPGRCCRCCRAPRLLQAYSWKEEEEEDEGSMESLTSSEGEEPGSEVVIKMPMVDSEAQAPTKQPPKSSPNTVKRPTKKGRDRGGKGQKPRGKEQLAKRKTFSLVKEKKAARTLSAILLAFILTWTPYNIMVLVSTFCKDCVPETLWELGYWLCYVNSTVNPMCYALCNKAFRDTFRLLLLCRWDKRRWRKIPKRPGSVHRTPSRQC
# Sequence of Ephrin type-A receptor 4 (Q03137 whole entry): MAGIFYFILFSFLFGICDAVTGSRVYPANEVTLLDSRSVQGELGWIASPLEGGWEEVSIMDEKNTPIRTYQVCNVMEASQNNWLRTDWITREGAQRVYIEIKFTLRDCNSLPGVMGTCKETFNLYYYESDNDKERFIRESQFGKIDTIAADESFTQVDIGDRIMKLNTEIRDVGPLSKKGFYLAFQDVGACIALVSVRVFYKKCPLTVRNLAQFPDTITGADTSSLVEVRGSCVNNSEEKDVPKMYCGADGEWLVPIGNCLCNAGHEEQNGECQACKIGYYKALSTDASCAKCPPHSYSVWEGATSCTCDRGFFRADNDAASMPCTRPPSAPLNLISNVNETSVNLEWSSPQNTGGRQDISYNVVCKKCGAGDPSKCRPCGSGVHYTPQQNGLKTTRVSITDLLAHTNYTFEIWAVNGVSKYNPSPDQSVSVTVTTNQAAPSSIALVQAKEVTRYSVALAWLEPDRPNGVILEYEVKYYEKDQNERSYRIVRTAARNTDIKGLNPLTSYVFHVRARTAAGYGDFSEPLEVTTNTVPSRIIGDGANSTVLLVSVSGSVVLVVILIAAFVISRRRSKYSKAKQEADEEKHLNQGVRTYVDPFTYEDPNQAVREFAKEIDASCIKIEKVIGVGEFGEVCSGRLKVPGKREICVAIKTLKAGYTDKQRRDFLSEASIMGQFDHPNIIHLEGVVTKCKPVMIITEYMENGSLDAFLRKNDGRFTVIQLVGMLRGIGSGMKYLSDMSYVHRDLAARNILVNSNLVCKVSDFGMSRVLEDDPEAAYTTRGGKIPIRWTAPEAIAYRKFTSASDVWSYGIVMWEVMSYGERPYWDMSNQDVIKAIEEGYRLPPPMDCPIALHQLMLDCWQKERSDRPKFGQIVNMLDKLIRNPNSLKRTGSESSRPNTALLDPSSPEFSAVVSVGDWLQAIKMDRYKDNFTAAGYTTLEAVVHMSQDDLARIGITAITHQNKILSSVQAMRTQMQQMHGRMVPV
structure (smiles),measurement,setting,value
Cc1ccc2oc3cc(NCCCN(C)C)c4c(=O)c5ccccc5c(=O)c4c3[nH]c2c1,EC50,Bcl-2-like protein 10,670 nM (active)
CCCCN(CCCC)c1nc2ccccc2nc1/C(C#N)=C(/O)OCC,IC50,Ephrin type-A receptor 4,5650 nM (active)
Cc1cc(NC(=O)CS(=O)(=O)c2cn(Cc3cc(Br)ccc3F)c3ccccc23)no1,EC50,[1],1420 nM (active)
Cc1cc(C)c2nc(NNC(=O)c3ccc(S(=O)(=O)N4CC(C)CC(C)C4)cc3)sc2c1 (stereo not drawn),IC50,[2],4160 nM (active)
same,EC50,[3],697 nM (active)
same,IC50,[4],3680 nM (active)
same,EC50,[5],1350 nM (active)
same,EC50,Galanin receptor type 2,> 55700 nM (not active)
same,EC50,[6],3390 nM (active)
same,EC50,Streptococcus [7],2550 nM (active)
same,AC50,INS1,1960 nM (active)
same,AC50,[8],2280 nM (active)
same,AC50,[9],7560 nM (active)
same,AC50,[10],2100 nM (active)
COc1ccc(CNCc2cccc(Cl)c2)cc1,IC50,[11],1120 nM (active)
COc1ccc(C2(c3ccc(O)cc3O)CC(c3ccccc3Cl)N=C(S)N2)cc1 (stereo not drawn),EC50,[12],> 100000 nM (active)
COc1ccc(-c2nc(OC)c3ccccc3n2)cc1,EC50,Streptokinase A,63200 nM (active)
same,EC50,Streptococcus [13],> 500000 nM (not active)
